Laboratory results: US20250032651A1, “[177LU] LUTETIUM-PSMA I&T COMPOSITION AND DOSIMETRY, KIT, METHOD OF MAKING, AND METHOD OF USING THEREOF” (Curium US LLC, priority 2022, published 2025)

Assay: Normal organ dosimetry Cycle 1: SPECT/CT, TIACs, OLINDA 2.2.3 absorbed radiation dose
Type: in vivo, human
Details: for Absorbed Dose, min / Absorbed Dose, Mean / Absorbed Dose, max / Absorbed Dose, median: Cycle 1
Description: This Example presents the biodistribution, dosimetry, and pharmacokinetics (PK) results of a PK/Dosimetry sub-study performed as part of a Phase III trial. Twenty-seven (27) patients were administered a target activity of 7.4±10% GBq of ^177Lu-PSMA-I&T and underwent single photon emission computed tomography (SPECT)/computed tomography (CT) imaging at four timepoints (4 h, 24 h, 48 h, and 168 h). Image data was analysed to compute time-activity curves (TACs) and subsequently time-integrated activity coefficients (TIACs) in each organ of interest and in organs showing appreciable and meaningful ^177Lu-PSMA-I&T activity. Organ Level Internal Dose Assessment (OLINDA 2.2.3) was used to compute organ and whole body absorbed radiation doses for each patient.
All participating sites underwent a rigorous site setup process during which all dose calibrators, scanners, and gamma counters used in the sub-study were calibrated. Sites were allowed to enroll patients in the sub-study only after the completion and approval of all site setup processes by Invicro. Patients underwent SPECT/CT imaging, with anatomical coverage typically extending from the salivary glands to the pelvis, following the administration of a targeted 7.4±10% GBq of ^177Lu-PSMA-I&T at cycle 1. SPECT/CT imaging was performed at four timepoints: 4 h, 24 h, 48 h, and 168 h post-injection. Additionally, a subset of patients imaged at Cycle 1 (16 out of 27), were also imaged at Cycle 3 (Table 2).
The imaging data was analyzed using Invicro's VivoQuant software, a validated software used in a 21 CFR § 11-compliant workflow. The general quantification approach was based on the principles detailed in the Medical Internal Radiation Dose (MIRD) Pamphlet No. 16, No 23, and No 26 as appropriate.
Volume of interest (VOI) (kidneys, bladder, liver, lumbar vertebrae L2-L4, lacrimal glands, salivary glands [parotid and submandibular glands], and whole body) were delineated on each dataset by a trained image analyst. […] Organs were segmented either by drawing the entire contour of the organ, or by placing a sphere in a representative region of the organ and then multiplying by the organ's effective mass (based on patient's height and weight). Segmentation methods for each organ are specified in Table 3 and were consistently applied to each patient.
Clearance of the radiopharmaceutical was derived from a data-appropriate fit of each organ's TAC. Depending on the TAC's shape, the data was fitted with the sum of one, two, or three exponentials, or using a rise and fall model. Fitting was performed with in-house Python software. TIACs were calculated through analytical integration of the curve fit extrapolated to infinity. […] A whole-body TAC was derived from delineating the imaged body. The remainder activity was determined by subtracting the cumulative organ TIACs from the whole body TIAC.
Organ TIACs were input into OLINDA 2.2.3 for the computation of organ and whole-body absorbed doses, using International Commission on Radiological Protection (ICRP)-103 weighing factors. The ICRP-89 derived male phantom was used for dose estimation. Organs and body mass as defined by ICRP-89 were scaled based on height and mass using patient effective mass.^4 The voiding bladder model as implemented in OLINDA was used to determine bladder TIAC, assuming a voiding interval of 4 hours. The human alimentary tract model (HAT model) described in ICRP 100 and implemented in OLINDA was used to compute doses to the small intestine, right colon, left colon and rectum for patients showing clearance through the GI tract. The fraction of injected activity (fIA) cleared via the GI tract was determined by taking the peak fIA in the GI tract over all the imaging timepoints. […] The Red Marrow mass in L2-L4 was assumed to be 6.7% of the total red marrow mass.

[1] = Prostate, 16 patients imaged at cycle 1 and 3
[2] = Rectum, 16 patients imaged at cycle 1 and 3
[3] = Red Marrow, 16 patients imaged at cycle 1 and 3
[4] = Right Colon, 16 patients imaged at cycle 1 and 3
[5] = Salivary Glands, 16 patients imaged at cycle 1 and 3
[6] = Salivary Glands, n = 26, patient 12-004 excluded
[7] = Small intestine, 16 patients imaged at cycle 1 and 3
[8] = Spleen, 16 patients imaged at cycle 1 and 3
[9] = Stomach Wall, 16 patients imaged at cycle 1 and 3
[10] = Testes, 16 patients imaged at cycle 1 and 3
[11] = Thymus, 16 patients imaged at cycle 1 and 3
[12] = Thyroid, 16 patients imaged at cycle 1 and 3
[13] = Total Body, 16 patients imaged at cycle 1 and 3
[14] = Urinary Bladder wall, 16 patients imaged at cycle 1 and 3

## O=C([O-])CC[C@H](NC(=O)N[C@@H](CCCCNC(=O)CCCCCCC(=O)NCCCC[C@@H](NC(=O)[C@@H](Cc1ccccc1)NC(=O)[C@@H](Cc1ccc(O)c(I)c1)NC(=O)CC[C@H](C(=O)[O-])N1CCN(CC(=O)[O-])CCN(CC(=O)[O-])CCN(CC(=O)[O-])CC1)C(=O)[O-])C(=O)[O-])C(=O)[O-].[177Lu+3].[H+].[H+].[H+].[H+].[H+] [^177Lu-PSMA I&T, (3S,7S,26R,29R,32R,37R)-29-benzyl-32-(4-hydroxy-3-iodobenzyl)-5,13,20,28,31,34-hexaoxo-37-(4,7,10-tris(carboxymethyl)-1,4,7,10-tetraazacyclododecan-1-yl)-4,6,12,21,27,30,33-heptaazaheptatriacontane-1,3,7,26,37-pentacarboxylic acid; lutetium-177 (III)]
Pancreas, n = 26
  Absorbed Dose, min: 0.00 Gy/GBq
Pancreas, N = 16
  Absorbed Dose in Cycle 1, Mean: 0.02 Gy/GBq
  Absorbed Dose in Cycle 1, max: 0.07 Gy/GBq
  Absorbed Dose in Cycle 1, min: 0.00 Gy/GBq
[1]
  Absorbed Dose in Cycle 1, Mean: 0.02 Gy/GBq
  Absorbed Dose in Cycle 1, max: 0.07 Gy/GBq
  Absorbed Dose in Cycle 1, min: 0.01 Gy/GBq
Prostate, n = 26
  Absorbed Dose, Mean: 0.02 Gy/GBq
  Absorbed Dose, max: 0.07 Gy/GBq
  Absorbed Dose, median: 0.01 Gy/GBq
  Absorbed Dose, min: 0.01 Gy/GBq
Prostate, N = 16
  Absorbed Dose in Cycle 1, Mean: 0.02 Gy/GBq
  Absorbed Dose in Cycle 1, max: 0.07 Gy/GBq
  Absorbed Dose in Cycle 1, min: 0.01 Gy/GBq
[2]
  Absorbed Dose in Cycle 1, Mean: 0.50 Gy/GBq
  Absorbed Dose in Cycle 1, max: 1.46 Gy/GBq
  Absorbed Dose in Cycle 1, min: 0.01 Gy/GBq
Rectum, n = 26
  Absorbed Dose, Mean: 0.44 Gy/GBq
  Absorbed Dose, max: 1.46 Gy/GBq
  Absorbed Dose, median: 0.39 Gy/GBq
  Absorbed Dose, min: 0.01 Gy/GBq
Rectum, N = 16
  Absorbed Dose in Cycle 1, Mean: 0.50 Gy/GBq
  Absorbed Dose in Cycle 1, max: 1.46 Gy/GBq
  Absorbed Dose in Cycle 1, min: 0.01 Gy/GBq
[3]
  Absorbed Dose in Cycle 1, Mean: 0.05 Gy/GBq
  Absorbed Dose in Cycle 1, max: 0.28 Gy/GBq
  Absorbed Dose in Cycle 1, min: 0.00 Gy/GBq
Red Marrow, n = 26
  Absorbed Dose, Mean: 0.08 Gy/GBq
  Absorbed Dose, max: 0.49 Gy/GBq
  Absorbed Dose, median: 0.03 Gy/GBq
  Absorbed Dose, min: 0.00 Gy/GBq
Red Marrow, N = 16
  Absorbed Dose in Cycle 1, Mean: 0.05 Gy/GBq
  Absorbed Dose in Cycle 1, max: 0.28 Gy/GBq
  Absorbed Dose in Cycle 1, min: 0.00 Gy/GBq
[4]
  Absorbed Dose in Cycle 1, Mean: 0.28 Gy/GBq
  Absorbed Dose in Cycle 1, max: 0.82 Gy/GBq
  Absorbed Dose in Cycle 1, min: 0.01 Gy/GBq
Right Colon, n = 26
  Absorbed Dose, Mean: 0.25 Gy/GBq
  Absorbed Dose, max: 0.82 Gy/GBq
  Absorbed Dose, median: 0.22 Gy/GBq
  Absorbed Dose, min: 0.01 Gy/GBq
Right Colon, N = 16
  Absorbed Dose in Cycle 1, Mean: 0.28 Gy/GBq
  Absorbed Dose in Cycle 1, max: 0.82 Gy/GBq
  Absorbed Dose in Cycle 1, min: 0.01 Gy/GBq
[5]
  Absorbed Dose in Cycle 1, Mean: 0.17 Gy/GBq
  Absorbed Dose in Cycle 1, max: 0.80 Gy/GBq
  Absorbed Dose in Cycle 1, min: 0.03 Gy/GBq
[6]
  Absorbed Dose, Mean: 0.19 Gy/GBq
  Absorbed Dose, max: 0.80 Gy/GBq
  Absorbed Dose, median: 0.15 Gy/GBq
  Absorbed Dose, min: 0.03 Gy/GBq
Salivary Glands, N = 16
  Absorbed Dose in Cycle 1, Mean: 0.17 Gy/GBq
  Absorbed Dose in Cycle 1, max: 0.80 Gy/GBq
  Absorbed Dose in Cycle 1, min: 0.03 Gy/GBq
[7]
  Absorbed Dose in Cycle 1, Mean: 0.06 Gy/GBq
  Absorbed Dose in Cycle 1, max: 0.15 Gy/GBq
  Absorbed Dose in Cycle 1, min: 0.01 Gy/GBq
Small intestine, n = 26
  Absorbed Dose, Mean: 0.05 Gy/GBq
  Absorbed Dose, max: 0.15 Gy/GBq
  Absorbed Dose, median: 0.04 Gy/GBq
  Absorbed Dose, min: 0.01 Gy/GBq
Small intestine, N = 16
  Absorbed Dose in Cycle 1, Mean: 0.06 Gy/GBq
  Absorbed Dose in Cycle 1, max: 0.15 Gy/GBq
  Absorbed Dose in Cycle 1, min: 0.01 Gy/GBq
[8]
  Absorbed Dose in Cycle 1, Mean: 0.03 Gy/GBq
  Absorbed Dose in Cycle 1, max: 0.11 Gy/GBq
  Absorbed Dose in Cycle 1, min: 0.01 Gy/GBq
Spleen, n = 26
  Absorbed Dose, Mean: 0.03 Gy/GBq
  Absorbed Dose, max: 0.11 Gy/GBq
  Absorbed Dose, median: 0.02 Gy/GBq
  Absorbed Dose, min: 0.01 Gy/GBq
Spleen, N = 16
  Absorbed Dose in Cycle 1, Mean: 0.03 Gy/GBq
  Absorbed Dose in Cycle 1, max: 0.11 Gy/GBq
  Absorbed Dose in Cycle 1, min: 0.01 Gy/GBq
[9]
  Absorbed Dose in Cycle 1, Mean: 0.02 Gy/GBq
  Absorbed Dose in Cycle 1, max: 0.07 Gy/GBq
  Absorbed Dose in Cycle 1, min: 0.00 Gy/GBq
Stomach Wall, n = 26
  Absorbed Dose, Mean: 0.02 Gy/GBq
  Absorbed Dose, max: 0.07 Gy/GBq
  Absorbed Dose, median: 0.01 Gy/GBq
  Absorbed Dose, min: 0.00 Gy/GBq
Stomach Wall, N = 16
  Absorbed Dose in Cycle 1, Mean: 0.02 Gy/GBq
  Absorbed Dose in Cycle 1, max: 0.07 Gy/GBq
  Absorbed Dose in Cycle 1, min: 0.00 Gy/GBq
[10]
  Absorbed Dose in Cycle 1, Mean: 0.01 Gy/GBq
  Absorbed Dose in Cycle 1, max: 0.07 Gy/GBq
  Absorbed Dose in Cycle 1, min: 0.00 Gy/GBq
Testes, n = 26
  Absorbed Dose, Mean: 0.01 Gy/GBq
  Absorbed Dose, max: 0.07 Gy/GBq
  Absorbed Dose, median: 0.01 Gy/GBq
  Absorbed Dose, min: 0.00 Gy/GBq
Testes, N = 16
  Absorbed Dose in Cycle 1, Mean: 0.01 Gy/GBq
  Absorbed Dose in Cycle 1, max: 0.07 Gy/GBq
  Absorbed Dose in Cycle 1, min: 0.00 Gy/GBq
[11]
  Absorbed Dose in Cycle 1, Mean: 0.01 Gy/GBq
  Absorbed Dose in Cycle 1, max: 0.07 Gy/GBq
  Absorbed Dose in Cycle 1, min: 0.00 Gy/GBq
Thymus, n = 26
  Absorbed Dose, Mean: 0.01 Gy/GBq
  Absorbed Dose, max: 0.07 Gy/GBq
  Absorbed Dose, median: 0.01 Gy/GBq
  Absorbed Dose, min: 0.00 Gy/GBq
Thymus, N = 16
  Absorbed Dose in Cycle 1, Mean: 0.01 Gy/GBq
  Absorbed Dose in Cycle 1, max: 0.07 Gy/GBq
  Absorbed Dose in Cycle 1, min: 0.00 Gy/GBq
[12]
  Absorbed Dose in Cycle 1, Mean: 0.01 Gy/GBq
  Absorbed Dose in Cycle 1, max: 0.07 Gy/GBq
  Absorbed Dose in Cycle 1, min: 0.00 Gy/GBq
Thyroid, n = 26
  Absorbed Dose, Mean: 0.01 Gy/GBq
  Absorbed Dose, max: 0.07 Gy/GBq
  Absorbed Dose, median: 0.01 Gy/GBq
  Absorbed Dose, min: 0.00 Gy/GBq
Thyroid, N = 16
  Absorbed Dose in Cycle 1, Mean: 0.01 Gy/GBq
  Absorbed Dose in Cycle 1, max: 0.07 Gy/GBq
  Absorbed Dose in Cycle 1, min: 0.00 Gy/GBq
[13]
  Absorbed Dose in Cycle 1, Mean: 0.02 Gy/GBq
  Absorbed Dose in Cycle 1, max: 0.09 Gy/GBq
  Absorbed Dose in Cycle 1, min: 0.01 Gy/GBq
Total Body, n = 26
  Absorbed Dose, Mean: 0.02 Gy/GBq
  Absorbed Dose, max: 0.09 Gy/GBq
  Absorbed Dose, median: 0.02 Gy/GBq
  Absorbed Dose, min: 0.01 Gy/GBq
Total Body, N = 16
  Absorbed Dose in Cycle 1, Mean: 0.02 Gy/GBq
  Absorbed Dose in Cycle 1, max: 0.09 Gy/GBq
  Absorbed Dose in Cycle 1, min: 0.01 Gy/GBq
[14]
  Absorbed Dose in Cycle 1, Mean: 0.40 Gy/GBq
  Absorbed Dose in Cycle 1, max: 0.47 Gy/GBq
  Absorbed Dose in Cycle 1, min: 0.33 Gy/GBq
Urinary Bladder wall, n = 26
  Absorbed Dose, Mean: 0.41 Gy/GBq
  Absorbed Dose, max: 0.50 Gy/GBq
  Absorbed Dose, median: 0.41 Gy/GBq
  Absorbed Dose, min: 0.33 Gy/GBq
Urinary Bladder wall, N = 16
  Absorbed Dose in Cycle 1, Mean: 10.40 Gy/GBq
  Absorbed Dose in Cycle 1, max: 0.47 Gy/GBq
  Absorbed Dose in Cycle 1, min: 0.33 Gy/GBq
